{
  "source": "paper PMC10518255",
  "about": "“A first-in-class pan-lysyl oxidase inhibitor impairs stromal remodeling and enhances gemcitabine response and survival in pancreatic cancer” (Nature Cancer, 2023)",
  "tested_on": "KPC CCs",
  "experiment": "Cancer cell invasion into CAF-remodeled 3D organotypic matrices",
  "type": "cell-based, mouse",
  "settings": "for number of cancer cells invaded per FOV: single replicates",
  "method": "Fig. 3 PXS-5505 inhibition of CAF remodeling in vitro. a, Quantitative PCR with reverse transcription (qRT–PCR) showing in vitro comparison of KPC CAF relative expression of lysyl oxidase family members compared to KPC CCs from the same model (n = 3 biologically independent samples). Comparisons were determined by 2^–∆∆Ct approach. b, Representative images of 3D organotypic matrix contraction assay at days 2, 6 and 12 in the absence (gray) or presence (pink) of PXS-5505 (30 µM). Scale bars, 5 mm. Comparison of measured area of matrices between control and PXS-5505 treatment groups over time (n = 3 technical samples examined over three biologically independent samples). Data are mean ± s.d. c, Concentration of immature divalent DHLNL and mature trivalent Pyr collagen crosslinks determined by LC–MS from control and PXS-5505-treated organotypic matrices at day 12 (n = 3 technical samples examined over two biologically independent samples). Data are mean ± s.d. […] Data are presented as mean ± s.d. […] Comparison of number of CCs invaded per field of view (FOV) as determined by H&E and PanCK staining (nine images taken from three technical samples from each of three biologically independent contracted matrices), normalized to control. Data are mean ± s.d. Scale bars, 100 μm. […] Source data\nFollowing remodeling, 4 × 10^4 KPC CCs were seeded on top of the remodeled matrix in DMEM supplemented with 10% FBS and 1% penicillin–streptomycin and allowed to grow to confluence for 4 days, after which matrices were transferred to an air–liquid interface and CCs allowed to invade into the organotypic matrices for 12 days (Extended Data Fig. 4f). PXS-5505 (30 μM) or PXS-5120 (100 nM) was added to medium at 48-h intervals for the duration. At the end point, matrices were fixed in 10% formalin and processed for histological analysis by H&E and panCK staining. The invasive index was measured in three representative areas per matrix and the number of invaded cells per mm^2 was calculated. No statistical methods were used to predetermine sample sizes but our sample sizes are similar to those reported in previous publications[36],[39].\nExtended Data Fig. 4 PXS-5505 inhibits collagen cross-linking by PDAC CAFs in vitro resulting in decreased cancer cell invasion. a. Schematic of organotypic matrix remodeling assay whereby CAFs are embedded into a 3D collagen matrix and growth media supplemented with or without PXS-5505 to inhibit lysyl oxidase family activity b. Chemical structures of lysyl oxidase family catalyzed hydroxyallysine or allysine residues and the subsequent divalent and trivalent bonds that are formed that can be quantified by mass spectrometry. c. Representative images of 3D organotypic matrix contraction by human pancreatic cancer CAFs at days 2, 6 and 12 in the absence (gray) and presence (pink) of PXS-5505 (30 µM). Scale bars = 5 mm. […] Data presented as mean values +/− SD. d. […] Data presented as mean values +/− SD. Relative fold expression of LOXL family members compared to LOX were determined by 2^–∆∆Ct approach. f. […] Comparison of measured area of matrices between control, PXS-5120 and PXS-5505 treatment groups (n = 3) over time. i. […] Representative images of invasion of KPC cancer cells into a contracted organotypic matrix as determined by H&E staining. […]",
  "note": "Values joined by “and” are separate entries in the source; they are usually repeats but may differ in a detail not shown here. Equal values may be shown once.",
  "data": [
    {"compound": "Cl.Cl.NC/C=C(\\F)CS(=O)(=O)c1cccc2cccnc12.O", "note": "[PXS-5505, (Z)-3-fluoro-4-(quinolin-8-ylsulfonyl)but-2-en-1-amine dihydrochloride monohydrate]", "values": [
      {"measurement": "depth of invasion", "setting": "PXS-5505 30 µM", "result": "no significant difference in depth of invasion"},
      {"measurement": "invasion into the organotypic matrices by CCs", "setting": "PXS-5505 30 µM", "result": "decrease in invasion"},
      {"measurement": "number of cancer cells invaded per FOV", "setting": "determined by H&E", "result": "0.4375 and 0.5681 and 0.5386 and 0.8338 and 0.9078 and 0.6013 and 0.6222 and 0.3197 and 1.014"},
      {"measurement": "number of cancer cells invaded per FOV", "setting": "determined by PanCK", "result": "0.6309 and 0.4054 and 0.3571 and 0.6771 and 0.6115 and 1.118 and 0.7087 and 0.8827 and 0.7763"}
    ]}
  ]
}
